From patent US11780840B2 (Incyte Corporation, priority 2020, dated 2023) come the findings set out here.

In test [1] the target is T1, pseudo-kinase domain (JH2, amino-acids 536-812 with 3 surface mutations W659A, W777A, F794H) of human Wild Type JAK2 (Homo sapiens, UniProt O60674, F794H/W659A/W777A).
T1 construct: pseudo-kinase domain (JH2, amino-acids 536-812 with 3 surface mutations W659A, W777A, F794H); His (C); Avi (biotinylated) (C); purchased BPS Bioscience 79463; host or cells: baculovirus expression system
Nature of the test: JAK2 LanthaScreen JH2-WT Binding Assay. Particulars: JAK2 JH2-WT (0.145 nM), 50 nM Fluorescent JAK2-JH2 Tracer, 1 hour at 25° C.; read-out: JH2 BIND WT. How it is done:
Example B. JAK2 LanthaScreen JH2-WT Binding Assay
(§1) JAK2 JH2-WT binding assay utilizes pseudo-kinase domain (JH2, amino-acids 536-812 with 3 surface mutations W659A, W777A, F794H) of human Wild Type JAK2 expressed as C-terminal His-Avi-tagged, biotinylated protein in a baculovirus expression system (BPS Bioscience, Catalog #79463). The assay was conducted in black 384-well polystyrene plates in a final reaction volume of 20 μL. JAK2 JH2-WT (0.145 nM) was incubated with compounds (100 nL serially diluted in DMSO) in the presence of 50 nM Fluorescent JAK2-JH2 Tracer (MedChem Express Catalog #HY-102055) and 0.25 nM Streptavidin-Tb cryptate (Cisbio Part #610SATLB) in assay buffer (50 mM Tris, pH=7.5, 10 mM MgCl2, 0.01% Brij-35, 0.1% BSA, 1 mM EGTA, 5% Glycerol and 5 mM DTT). Non-specific binding was accessed in the presence of 2 mM ATP. After incubation for 1 hour at 25° C., LanthaScreen signals were read on a PHERAstar FS plate reader (BMG LABTECH). Data was analyzed with IDBS XLfit and GraphPad Prism 5.0 software using a four parameter dose response curve to determine IC50 for each compound.

The target in test [2] is T2, catalytic domain (JH1, amino acids 826-1132) of human JAK2 (Homo sapiens, UniProt O60674).
T2 construct: catalytic domain (JH1, amino acids 826-1132) of human JAK2; FLAG (N); purchased Carna Biosciences 08-445-20N; host or cells: baculovirus expression system
Nature of the test: JAK2 LanthaScreen JH1 Binding Assay. Particulars: JAK2 JH1 (1.5 nM), 50 nM fluorescent JAK2-JH1 tracer, 2 hours at 25° C.; read-out: JH1 BIND. How it is done:
Example A. JAK2 LanthaScreen JH1 Binding Assay
JAK2 JH1 binding assay utilizes catalytic domain (JH1, amino acids 826-1132) of human JAK2 expressed as N-terminal FLAG-tagged, biotinylated protein in a baculovirus expression system (Carna Biosciences, Product #08-445-20N). The assay was conducted in black 384-well polystyrene plates in a final reaction volume of 20 μL. JAK2 JH1 (1.5 nM) was incubated with compounds (100 nL serially diluted in DMSO) in the presence of 50 nM fluorescent JAK2-JH1 tracer and 0.5 nM Streptavidin-Tb cryptate (Cisbio Part #610SATLB) in assay buffer (50 mM Tris, pH=7.5, 10 mM MgCl2, 0.01% Brij-35, 0.1% BSA, 1 mM EGTA, 5% Glycerol and 5 mM DTT). Non-specific binding was accessed in the presence of 2 mM ATP. After incubation for 2 hours at 25° C., LanthaScreen signals were read on a PHERAstar FS plate reader (BMG LABTECH). Data was analyzed with IDBS XLfit and GraphPad Prism 5.0 software using a four parameter dose response curve to determine IC50 for each compound.
On the technique in general: In TR-FRET formats the signal depends on donor and acceptor labels being close together.

Test [3] has as its target T3, pseudo-kinase domain (JH2, amino-acids 536-812 with 3 surface mutations W659A, W777A, F794H) of human V617F mutant JAK2 (Homo sapiens, UniProt O60674, F794H/V617F/W659A/W777A).
T3 construct: pseudo-kinase domain (JH2, amino-acids 536-812 with 3 surface mutations W659A, W777A, F794H); His (C); Avi (biotinylated) (C); purchased BPS Bioscience 79498; host or cells: baculovirus expression system
The test is described as follows: JAK2 LanthaScreen JH2-V617F Binding Assay. The following applies: JAK2 JH2-V617F (0.26 nM), 50 nM Fluorescent JAK2-JH2 Tracer, 1 hour at 25° C.; read-out: JH2 BIND V617F. On the procedure:
Example C. JAK2 LanthaScreen JH2-V617F Binding Assay
as §1, with “JH2-V617F” for “JH2-WT”, “V617F mutant” for “Wild Type”, “#79498).” for “#79463).”, “JH2-V617F (0.26” for “JH2-WT (0.145”

pIC50: −log10 of the molar value. Where only a bound is given, the exact number is not on record here.

T3 sequence (O60674 536-812 V617F/W659A/W777A/F794H): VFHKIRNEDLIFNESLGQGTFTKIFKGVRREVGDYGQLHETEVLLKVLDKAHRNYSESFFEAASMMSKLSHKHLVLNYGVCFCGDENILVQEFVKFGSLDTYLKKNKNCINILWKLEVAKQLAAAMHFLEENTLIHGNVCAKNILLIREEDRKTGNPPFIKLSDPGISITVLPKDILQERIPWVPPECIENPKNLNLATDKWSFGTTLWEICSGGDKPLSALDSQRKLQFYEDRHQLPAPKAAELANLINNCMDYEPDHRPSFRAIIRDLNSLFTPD
T1 sequence (O60674 536-812 W659A/W777A/F794H): as the sequence (O60674 536-812 V617F/W659A/W777A/F794H) above, with F82V counted along it
T2 sequence (O60674 826-1132): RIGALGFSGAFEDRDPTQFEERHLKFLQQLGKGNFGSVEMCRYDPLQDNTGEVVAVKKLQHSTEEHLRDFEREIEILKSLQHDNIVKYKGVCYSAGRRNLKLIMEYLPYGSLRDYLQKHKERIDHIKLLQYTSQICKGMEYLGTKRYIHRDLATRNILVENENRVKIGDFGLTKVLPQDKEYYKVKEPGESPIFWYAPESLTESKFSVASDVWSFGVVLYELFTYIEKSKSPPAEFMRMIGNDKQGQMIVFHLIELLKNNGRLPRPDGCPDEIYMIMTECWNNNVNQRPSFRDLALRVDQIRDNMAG

With `Cn1c(=O)n(C2CCCC2)c2c3c(-c4ccccc4)c(-c4ccc(CN5CCC(S(C)(=O)=O)CC5)cc4)[nH]c3ncc21` [Example 28, 1-Cyclopentyl-3-methyl-7-(4-((4-(methylsulfonyl)piperidin-1-yl)methyl)phenyl)-8-phenyl-3,6-dihydroimidazo[4,5-d]pyrrolo[2,3-b]pyridin-2(1H)-one], the figures for the pIC50 in test [1], in test [2] and in test [3] were no less than 8.00, 6.30 to 7.00 and no less than 8.00, respectively.
With `Cn1c(=O)n(C2CCCC2)c2c3c(-c4cc5cnccc5s4)c(-c4cnn(CC(F)F)c4)[nH]c3ncc21` [Example 57, 1-Cyclopentyl-7-(1-(2,2-difluoroethyl)-1H-pyrazol-4-yl)-3-methyl-8-(thieno[3,2-c]pyridin-2-yl)-3,6-dihydroimidazo[4,5-d]pyrrolo[2,3-b]pyridin-2(1H)-one], the figures for the pIC50 in test [1], in test [2] and in test [3] were no less than 8.00, 6.30 to 7.00 and no less than 8.00, respectively.
As to `[2H]C([2H])([2H])n1ncc2cc(-c3c(-c4cn(C)nc4OC)[nH]c4ncc5c(c34)n(C3CCOCC3)c(=O)n5C)ccc21` [Example 109, 7-(3-Methoxy-1-methyl-1H-pyrazol-4-yl)-3-methyl-8-(1-(methyl-d3)-1H-indazol-5-yl)-1-(tetrahydro-2H-pyran-4-yl)-3,6-dihydroimidazo[4,5-d]pyrrolo[2,3-b]pyridin-2(1H)-one], the pIC50 in test [1] was no less than 8.00; in test [2] it was less than 6.00; in test [3], no less than 8.00.
`Cn1cc(-c2cc3c(ncc4c3[nH]c(=O)n4C)[nH]2)cn1` [Example 14, 3-Methyl-7-(1-methyl-1H-pyrazol-4-yl)-3,6-dihydroimidazo[4,5-d]pyrrolo[2,3-b]pyridin-2(1H)-one]: the results for the pIC50 in test [1], in test [2] and in test [3] were less than 6.00, 6.30 to 7.00 and less than 6.00, respectively.
For the compound `Cn1c(=O)n(-c2ccccc2)c2c3cc(-c4ccc(CN5CCC(S(C)(=O)=O)CC5)c(F)c4)[nH]c3ncc21` [Example 8, 7-(3-Fluoro-4-((4-(methylsulfonyl)piperidin-1-yl)methyl)phenyl)-3-methyl-1-phenyl-3,6-dihydroimidazo[4,5-d]pyrrolo[2,3-b]pyridin-2(1H)-one], the pIC50 in test [1] is 7.00 to 8.00; in test [2], 7.00 to 8.00; in test [3], 6.30 to 7.00.
For `Cn1cc(-c2[nH]c3ncc4c(c3c2-c2ccc3c(cnn3C)c2)n([C@H]2C[C@@H](CC#N)C2)c(=O)n4C)cn1` [Example 101, 2-((1S,3S)-3-(3-Methyl-8-(1-methyl-1H-indazol-5-yl)-7-(1-methyl-1H-pyrazol-4-yl)-2-oxo-3,6-dihydroimidazo[4,5-d]pyrrolo[2,3-b]pyridin-1(2H)-yl)cyclobutyl)acetonitrile], the results for the pIC50 in test [1], in test [2] and in test [3] were no less than 8.00, 6.30 to 7.00 and no less than 8.00, respectively.
Turning to `Cc1cn2cc(-c3c(-c4cnn(CC(C)(C)O)c4)[nH]c4ncc5c(c34)n(C(C)C)c(=O)n5C)cc2cn1` [Example 84, 7-(1-(2-Hydroxy-2-methylpropyl)-1H-pyrazol-4-yl)-1-isopropyl-3-methyl-8-(3-methylpyrrolo[1,2-a]pyrazin-7-yl)-3,6-dihydroimidazo[4,5-d]pyrrolo[2,3-b]pyridin-2(1H)-one], the pIC50 in test [1] is no less than 8.00; in test [2], less than 6.00; in test [3], no less than 8.00.
As to `Cn1c(=O)n(C2CC3CCC2C3)c2c3c(-c4ccccc4)c(-c4cnn(CS(C)(=O)=O)c4)[nH]c3ncc21` (stereo not drawn) [Example 45, 1-(Bicyclo[2.2.1]heptan-2-yl)-3-methyl-7-(1-((methylsulfonyl)methyl)-1H-pyrazol-4-yl)-8-phenyl-3,6-dihydroimidazo[4,5-d]pyrrolo[2,3-b]pyridin-2(1H)-one], the pIC50 was no less than 8.00 in test [1], 7.00 to 8.00 in test [2] and 7.00 to 8.00 in test [3].
For `Cn1c(=O)n(C)c2c3c(-c4ccccc4)c(-c4cccnc4)[nH]c3ncc21` [Example 40, 1,3-Dimethyl-8-phenyl-7-(pyridin-3-yl)-3,6-dihydroimidazo[4,5-d]pyrrolo[2,3-b]pyridin-2(1H)-one], the results for the pIC50 in test [1], in test [2] and in test [3] were 6.00 to 6.30, less than 6.00 and less than 6.00, respectively.
